Broadly, the EC50 is the concentration at which the effect is half-maximal. As usually defined, the CC50 is the concentration at which the toxic effect on the cells reaches its halfway point. As a reminder, the IC50 is the midpoint of a concentration-inhibition curve.

The values that follow come from ChEMBL document CHEMBL5331107 (J Med Chem, 2023).

Data set [1] concerns Human immunodeficiency virus 1. In words: Antiviral activity against NNRTI-resistant HIV-1 harboring K103N mutant infected in human MT4 cells assessed as protection against virus-induced cytopathic effect incubated for 5 days by MTT assay. Particulars: Human immunodeficiency virus 1, MT4, 120 h. The data set is classed as functional, organism-based. (In general: Cytopathic effects are the visible damage that an infection or toxin causes in cultured cells.)

Data set [2] can be described thus: in vitro. Conditions: human, MT4 cells.
Description: Selectivity index, ratio of CC50 for cytotoxicity against human MT4 cells to EC50 for antiviral activity against wildtype HIV-1 IIIB infected in human MT4 cells
Data set [3] relates to Human immunodeficiency virus 1. Put plainly: microbe, parasite or virus in culture. Particulars: Human immunodeficiency virus 1, IIIB, MT4, 120 h.
Description: Antiviral activity against wild type HIV-1 IIIB infected in human MT4 cells assessed as protection against virus-induced cytopathic effect incubated for 5 days by MTT assay
The nature of data set [4]: in vitro. Conditions: human, MT4 cells. The source holds these as a separate data set.
Description: Selectivity index, ratio of CC50 for cytotoxicity against human MT4 cells to EC50 for antiviral activity against NNRTI-resistant HIV-1 harboring E138K mutant infected in human MT4 cells
Data set [5] can be described thus: Cytotoxicity against human MT4 cells assessed as reduction in cell viability incubated for 5 days by MTT assay. It counts as toxicity, cell-based. Particulars: time 5 day. In general terms: Tetrazolium assays rely on reduction of a dye to a coloured formazan, in cell work by metabolically active cells.
The test system of data set [6] is Human immunodeficiency virus 1. Put plainly: Antiviral activity against NNRTI-resistant HIV-1 harboring E138K mutant infected in human MT4 cells assessed as protection against virus-induced cytopathic effect incubated for 5 days by MTT assay. The data set is classed as functional, organism-based. Conditions: Human immunodeficiency virus 1, MT4, 120 h.
Data set [7] concerns the target Human immunodeficiency virus type 1 reverse transcriptase (Human immunodeficiency virus 1, UniProt Q72547). In words: Inhibition of HIV-1 reverse transcriptase assessed as assessed as reduction of biotin-dUTP incorporation into […] incubated for 1 hrs by ELISA analysis.
The nature of data set [8]: in vitro. Conditions: human, MT4 cells. The source holds these as a separate data set.
Description: Selectivity index, ratio of CC50 for cytotoxicity against human MT4 cells to EC50 for antiviral activity against NNRTI-resistant HIV-1 harboring K103N mutant infected in human MT4 cells
Data set [9] concerns Human immunodeficiency virus 1. It counts as functional, organism-based. Particulars: Human immunodeficiency virus 1, MT4, 120 h.
For data set [10], the system named is Human immunodeficiency virus 1. It counts as functional, organism-based. Particulars: Human immunodeficiency virus 1, MT4, 120 h. This is another data set of the same source.
Data set [11] can be described thus: in vitro. Particulars: human, MT4 cells. This is another data set of the same source.
Description: Selectivity index, ratio of CC50 for cytotoxicity against human MT4 cells to EC50 for antiviral activity against NNRTI-resistant HIV-1 harboring Y181C mutant infected in human MT4 cells
The nature of data set [12]: in vitro. Particulars: human, MT4 cells. The source holds these as a separate data set.
Description: Selectivity index, ratio of CC50 for cytotoxicity against human MT4 cells to EC50 for antiviral activity against NNRTI-resistant HIV-1 harboring Y188L mutant infected in human MT4 cells
A short description of data set [13]: in vitro. Conditions: human, MT4 cells. This is another data set of the same source.
Description: Selectivity index, ratio of CC50 for cytotoxicity against human MT4 cells to EC50 for antiviral activity against NNRTI-resistant HIV-1 harboring K103N and Y181C mutant infected in human MT4 cells
In data set [14] the test system is Human immunodeficiency virus 1. Put plainly: Antiviral activity against NNRTI-resistant HIV-1 harboring L100I mutant infected in human MT4 cells assessed as protection against virus-induced cytopathic effect incubated for 5 days by MTT assay. It counts as functional, organism-based. Conditions: Human immunodeficiency virus 1, MT4, 120 h.
Data set [15] has as its system Human immunodeficiency virus 1. In words: Antiviral activity against NNRTI-resistant HIV-1 harboring F227L and V106A double mutant infected in human MT4 cells assessed as protection against virus-induced cytopathic effect incubated for 5 days by MTT assay. Particulars: Human immunodeficiency virus 1, MT4, 120 h. The data set is classed as functional, organism-based.

The subject of data set [16] is Human immunodeficiency virus 1. The data set is classed as functional, organism-based. Particulars: Human immunodeficiency virus 1, MT4, 120 h. The source holds these as a separate data set.
The nature of data set [17]: in vitro. Conditions: human, MT4 cells. This is another data set of the same source.
Description: Selectivity index, ratio of CC50 for cytotoxicity against human MT4 cells to EC50 for antiviral activity against NNRTI-resistant HIV-1 harboring L100I mutant infected in human MT4 cells
Data set [18] in a line: in vitro. Particulars: human, MT4 cells. This is another data set of the same source.
Description: Selectivity index, ratio of CC50 for cytotoxicity against human MT4 cells to EC50 for antiviral activity against NNRTI-resistant HIV-1 harboring F227L and V106A mutant infected in human MT4 cells

Take `COc1cccc(C(=O)N2CCc3nc(Nc4ccc(C#N)cc4)nc(Oc4c(C)cc(C#N)cc4C)c3C2)c1`: the EC50 in data set [1] was determined as 8.01 nM; in [3], 7.32 nM; in data set [6], 33.3 nM. Besides, the selectivity ratio came to 653 in data set [2], 144 in [4] and 597 in [8]. The CC50 at 120 h in data set [5] was found to be 4780 nM. Further, the 50% inhibitory concentration (IC50) in [7] amounted to 180 nM.
`COc1ccc(C(=O)N2CCc3nc(Nc4ccc(C#N)cc4)nc(Oc4c(C)cc(C#N)cc4C)c3C2)cc1`: the EC50 in [1] stood at 9.56 nM; in data set [3], 6.76 nM; in data set [6], 47.5 nM. For the same molecule, the selectivity ratio in data set [2] was found to be 4800; in data set [4] it was 682; in data set [8], 3390. Also, the CC50 at 120 h in [5] amounted to 32400 nM. Also, the IC50 in data set [7] was 211 nM.
Consider `Cc1cc(C#N)cc(C)c1Oc1nc(Nc2ccc(C#N)cc2)nc2c1CN(C(=O)c1cccc(C(F)(F)F)c1)CC2`, for which the values for the EC50 in data set [1], in data set [3] and in [6] were 36.1 nM, 27.7 nM and 152 nM, respectively. The selectivity ratio in [2] is greater than 7930; in data set [4], greater than 1450; in data set [8] it was greater than 6090. Further, the CC50 at 120 h in [5] is greater than 220000 nM. For the same molecule, the IC50 in data set [7] was determined as 313 nM.
On to `Cc1cc(C#N)cc(C)c1Oc1nc(Nc2ccc(C#N)cc2)nc2c1CN(Cc1ccccc1)CC2`, for which the EC50 was 27.6 nM in data set [1], 19.1 nM in data set [3] and 103 nM in data set [6]. Besides, the results for the selectivity ratio in [2], in data set [4] and in data set [8] were 2740, 507 and 1890, respectively. For the same molecule, in data set [5], the CC50 at 120 h is 52100 nM. The IC50 in data set [7] worked out at 225 nM.
In the case of `COC(=O)c1ccc(C(=O)N2CCc3nc(Nc4ccc(C#N)cc4)nc(Oc4c(C)cc(C#N)cc4C)c3C2)cc1`, the EC50 in data set [1] worked out at 45.8 nM; in data set [3] it was 21.1 nM; in [6], 274 nM. In addition, the selectivity ratio was greater than 10600 in data set [2], greater than 817 in data set [4] and greater than 4890 in data set [8]. Moreover, the CC50 at 120 h in data set [5] is greater than 224000 nM. Moreover, the IC50 in data set [7] came to 237 nM.
In the case of `Cc1cc(C#N)cc(C)c1Oc1nc(Nc2ccc(C#N)cc2)nc2c1CN(C(=O)c1cccc(F)c1)CC2`, the concentration giving a half-maximal response (EC50) in [1] was found to be 9.5 nM; in data set [3], 9.12 nM; in data set [6], 33 nM. The selectivity ratio amounted to 551 in data set [2], 152 in [4] and 529 in data set [8]. For the same molecule, the CC50 at 120 h in data set [5] stood at 5020 nM. In addition, the IC50 in data set [7] was determined as 207 nM.
On to `Cc1cc(C#N)cc(C)c1Oc1nc(Nc2ccc(C#N)cc2)nc2c1CN(C(=O)c1cccc(C#N)c1)CC2`, for which the EC50 in data set [1] worked out at 10.4 nM; in [3], 7.77 nM; in data set [6] it was 40 nM. Also, the selectivity ratio in data set [2] is greater than 30600; in [4], greater than 5950; in data set [8] it was greater than 22800. Also, the CC50 at 120 h in data set [5] is greater than 238000 nM. Besides, in data set [7], the IC50 amounted to 161 nM.
On to `Cc1cc(C#N)cc(C)c1Oc1nc(Nc2ccc(C#N)cc2)nc2c1CN(C(=O)c1ccc(F)cc1)CC2`, for which the figures for the EC50 in data set [1], in data set [3] and in [6] were 8.97 nM, 8.84 nM and 24.1 nM, respectively. For the same molecule, the selectivity ratio came to 736 in data set [2], 270 in data set [4] and 726 in data set [8]. Moreover, the CC50 at 120 h in data set [5] is 6510 nM. Moreover, the IC50 in data set [7] was 154 nM.
Regarding `Cc1cc(C#N)cc(C)c1Oc1nc(Nc2ccc(C#N)cc2)nc2c1CN(S(=O)(=O)N(C)C)CC2`, the figures for the EC50 in data set [1], in data set [3] and in data set [6] were 8.19 nM, 7.94 nM and 30.5 nM, respectively. The figures for the selectivity ratio in data set [2], in data set [4] and in [8] were 7910, 2060 and 7670, respectively. Besides, the CC50 at 120 h in data set [5] turned out to be 62800 nM. The IC50 in [7] turned out to be 84 nM.
For the molecule `Cc1cc(C#N)cc(C)c1Oc1nc(Nc2ccc(C#N)cc2)nc2c1CN(C(=O)c1ccc(C(F)(F)F)cc1)CC2`, the values for the EC50 in [1], in data set [3] and in data set [6] were 44 nM, 28.8 nM and 132 nM, respectively. The results for the selectivity ratio in data set [2], in [4] and in data set [8] were greater than 7640, greater than 1670 and greater than 5000, respectively. Also, the CC50 at 120 h in [5] is greater than 220000 nM. The 50% inhibitory concentration (IC50) in [7] worked out at 297 nM.
Turning to `Cc1cc(C#N)cc(C)c1Oc1nc(Nc2ccc(C#N)cc2)nc2c1CN(Cc1ccc(B(O)O)cc1)CC2`, the values for the EC50 in data set [1], in data set [3] and in data set [6] were 15.5 nM, 14.9 nM and 55.7 nM, respectively. Besides, the figures for the selectivity ratio in data set [2], in data set [4] and in data set [8] were 787, 211 and 758, respectively. Besides, the CC50 at 120 h in data set [5] worked out at 11800 nM. For the same molecule, the IC50 in [7] came to 180 nM.
Consider `Cc1cc(C#N)cc(C)c1Oc1nc(Nc2ccc(C#N)cc2)nc2c1CNCC2`, for which the EC50 in data set [9] came out at 383 nM; in data set [10], 19.5 nM; in data set [1], 3.09 nM; in data set [3], 1.89 nM; in [6] it was 5.61 nM; in data set [14], 33.2 nM. For the same molecule, the results for the EC50 in data set [15] and in [16] were 136 nM and 45.4 nM, respectively. Moreover, the selectivity ratio in data set [11] was 435; in data set [12], 1010; in data set [13], 51; in [2], 10400; in data set [4], 3520; in data set [17], 595. Besides, the selectivity ratio in data set [18] was 145; in data set [8] it was 6380. For the same molecule, the CC50 at 120 h in data set [5] was found to be 19700 nM. Further, in data set [7], the IC50 is 57 nM.
Consider `Cc1cc(C#N)cc(C)c1Oc1nc(Nc2ccc(C#N)cc2)nc2c1CN(C(=O)c1cccc([N+](=O)[O-])c1)CC2`, for which the EC50 in data set [1] was 7.15 nM; in [3], 8 nM; in [6], 43 nM. Moreover, the selectivity ratio in [2] was greater than 28600; in data set [4] it was greater than 5330; in data set [8], greater than 32100. The CC50 at 120 h in [5] is greater than 229000 nM. Also, the half-maximal inhibitory concentration (IC50) in [7] is 169 nM.
For `Cc1cc(C#N)cc(C)c1Oc1nc(Nc2ccc(C#N)cc2)nc2c1CN(C(=O)c1ccc(C#N)cc1)CC2`, the EC50 in data set [1] came to 16.2 nM; in data set [3] it was 10.3 nM; in data set [6] it was 46.8 nM. Moreover, the selectivity ratio is greater than 23000 in [2], greater than 5090 in data set [4] and greater than 14700 in data set [8]. Further, the CC50 at 120 h in data set [5] was greater than 238000 nM. The IC50 in [7] is 154 nM.
With `O=C1Nc2ccc(Cl)cc2[C@@](C#CC2CC2)(C(F)(F)F)O1` [EFAVIRENZ], the EC50 came to 433 nM in data set [9]; 425 nM in [10]; 133 nM in data set [1]; 6.82 nM in [6]; 753 nM in data set [14]; 7.87 nM in [16]. Also, the CC50 at 120 h in [5] was greater than 6350 nM.
`Cc1ccnc2c1NC(=O)c1cccnc1N2C1CC1` [NEVIRAPINE]: the EC50 is greater than 15000 nM in [9]; greater than 15000 nM in [10]; 7790 nM in data set [1]; 155 nM in [3]; 205 nM in data set [6]; 2290 nM in [14]. The EC50 in [15] was greater than 15000 nM; in [16], 8950 nM. Moreover, the CC50 at 120 h in data set [5] was greater than 15000 nM.
